Reference: US10307439B2, “Substituted nucleosides, nucleotides and analogs thereof” (priority 2014, dated 2019)
pEC50, pIC50: −log10 of the molar value.

Columns and labels:
[1] = tested on: human β-coronavirus strain OC43 or human α-coronavirus strain 229E; experiment: Coronavirus assay (cytopathic effect, CellTiter-Glo, HeLa or MRC-5 cells); type: cell-based; details: Betacoronavirus 1; for inhibition: at one or more of the concentrations 75 μM, 10 μM and 2 μM, strain OC43 or 229E not specified; for pEC50: coronavirus strain OC43 or 229E not specified, 4 h pre-incubation, 5 days
[2] = tested on: TC-83 strain Venezuelan equine encephalitis virus; experiment: microbe, parasite or virus in culture; type: cell-based
Chikungunya virus = experiment: Chikungunya assay; type: cell-based; details: 2 h pre-incubation
SARS polymerase = SARS polymerase (Severe acute respiratory syndrome coronavirus, UniProt P0C6X7); experiment: biochemical; set-up: species or system SARS virus
MERS = experiment: microbe, parasite or virus in culture; type: cell-based; details: Middle East respiratory syndrome-related coronavirus, 96 h

In the case of `CCOc1nc(N)nc2c1ncn2[C@@H]1O[C@](F)(CO[P@](=O)(N[C@@H](C)C(=O)OC2CCCCC2)Oc2ccccc2)[C@@H](O)[C@@]1(C)F` (single isomer, unassigned) [Compound 212a], the inhibition [1] was ≥ 50% and the pEC50 [1] was > 5.00.

For `CCOc1nc(N)nc2c1ncn2[C@@H]1O[C@](F)(CO[P@@](=O)(N[C@@H](C)C(=O)OC2CCCCC2)Oc2ccccc2)[C@@H](O)[C@@]1(C)F` (single isomer, unassigned) [Compound 212b], the inhibition [1] was ≥ 50% and the pEC50 [1] was > 5.00.

`CC(C)OC(=O)OCOP(=O)(OCOC(=O)OC(C)C)OC[C@@]1(F)O[C@@H](n2ccc(=O)[nH]c2=O)[C@](C)(O)[C@@H]1O` [Compound 9] was tested, and the pEC50 [2] was > 5.00 and the pEC50 (Chikungunya virus) was > 5.00.

`C[C@H](NP(=O)(OC[C@@]1(F)O[C@@H](n2cnc3c(=O)[nH]c(N)nc32)[C@](C)(O)[C@@H]1F)Oc1ccccc1)C(=O)OC1CCCCC1` (stereo partly drawn) [Compound 14] was tested, and the inhibition [1] was ≥ 50%.

With `CCOc1nc(N)nc2c1ncn2[C@@H]1O[C@](F)(COP(=O)(N[C@@H](C)C(=O)OC2CCCCC2)Oc2ccccc2)[C@@H](F)[C@@]1(C)O` (stereo partly drawn) [Compound 16] the pEC50 [1] was > 5.00.

For `C[C@]1(F)[C@H](n2cnc3c(=O)[nH]c(N)nc32)O[C@](F)(COP(=O)(O)OP(=O)(O)OP(=O)(O)O)[C@H]1O` [Compound 19], the pIC50 (SARS polymerase) was > 5.00.

For `CCOc1nc(N)nc2c1ncn2[C@@H]1O[C@](F)(COP(=O)(N[C@@H](C)C(=O)OC(C)C)Oc2ccccc2)[C@@H](F)[C@@]1(C)O` (stereo partly drawn) [Compound 22], the inhibition [1] was ≥ 50%.

`CCOc1nc(N)nc2c1ncn2[C@@H]1O[C@](F)(CO[P@](=O)(N[C@@H](C)C(=O)OC2CCCCC2)Oc2ccccc2)[C@@H](O)[C@@]1(C)F` [Compound 25] was tested, and the EC90 (MERS) was 10 to 50 µM, the pEC50 [2] was > 5.00 and the pEC50 (Chikungunya virus) was > 5.00.

In the case of `C#C[C@]1(O)[C@H](n2cnc3c(OCC)nc(N)nc32)O[C@](F)(CO[P@](=O)(N[C@@H](C)C(=O)OC2CCCCC2)Oc2ccccc2)[C@H]1O` [Compound 27], the EC90 (MERS) was 10 to 50 µM.

`C[C@@]1(O)[C@H](O)[C@@](CF)(COP(=O)(O)OP(=O)(O)OP(=O)(O)O)O[C@H]1n1cnc2c(=O)[nH]c(N)nc21` [Compound 34] was tested, and the pIC50 (SARS polymerase) was > 5.00.

`CCOc1nc(N)nc2c1ncn2[C@@H]1O[C@](CF)(COP(=O)(N[C@@H](C)C(=O)OC2CCCCC2)Oc2ccccc2)[C@@H](O)[C@@]1(C)O` (stereo partly drawn) [Compound 36] was tested, and the EC90 (MERS) was < 10 µM.

In the case of `CCOc1nc(N)nc2c1ncn2[C@@H]1O[C@](F)(COP(=O)(OCOC(=O)OC(C)C)OCOC(=O)OC(C)C)[C@@H](O)[C@@]1(C)O` [Compound 55], the pEC50 [2] was > 5.00, the pEC50 (Chikungunya virus) was > 5.00 and the inhibition [1] was ≥ 50%. For the same compound, the pEC50 [1] was > 5.00.

In the case of `CCOc1nc(N)nc2c1ncn2[C@@H]1O[C@](F)(COP(=O)(OCOC(=O)OC(C)C)OCOC(=O)OC(C)C)[C@@H](F)[C@@]1(C)O` [Compound 57], the EC90 (MERS) was < 10 µM, the inhibition [1] was ≥ 50% and the pEC50 [1] was > 5.00.

`CCOc1nc(N)nc2c1ncn2[C@@H]1O[C@](F)(COP(=O)(OCOC(=O)OC(C)C)OCOC(=O)OC(C)C)[C@@H](O)[C@@]1(C)F` [Compound 83] was tested, and the inhibition [1] was ≥ 50% and the pEC50 [1] was > 5.00.

In the case of `C[C@]1(O)[C@H](n2cnc3c(=O)[nH]c(N)nc32)O[C@](F)(COP(=O)(O)OP(=O)(O)OP(=O)(O)O)[C@H]1F` [Compound 101], the pIC50 (SARS polymerase) was > 5.00.

With `C#C[C@]1(O)[C@H](n2cnc3c(=O)[nH]c(N)nc32)O[C@](F)(COP(=O)(O)OP(=O)(O)OP(=O)(O)O)[C@H]1F` [Compound 103] the pIC50 (SARS polymerase) was > 5.00.

`C#C[C@]1(F)[C@H](n2cnc3c(=O)[nH]c(N)nc32)O[C@](F)(COP(=O)(O)OP(=O)(O)OP(=O)(O)O)[C@H]1O` [Compound 123] was tested, and the pIC50 (SARS polymerase) was > 5.00.

With `C[C@@]1(F)[C@H](O)[C@@](CF)(COP(=O)(O)OP(=O)(O)OP(=O)(O)O)O[C@H]1n1cnc2c(=O)[nH]c(N)nc21` [Compound 162] the pIC50 (SARS polymerase) was > 5.00.

With `CCOc1nc(N)nc2c1ncn2[C@@H]1O[C@](CN=[N+]=[N-])(COP(=O)(OCOC(=O)OC(C)C)OCOC(=O)OC(C)C)[C@@H](O)[C@H]1F` [Compound 179] the pEC50 [1] was > 5.00.

For `C#C[C@@]1(O)[C@H](O)[C@@H](COP(=O)(O)OP(=O)(O)OP(=O)(O)O)O[C@H]1n1cnc2c(=O)[nH]c(N)nc21` [Compound 203], the pIC50 (SARS polymerase) was > 5.00.

For `CCOc1nc(N)nc2c1ncn2[C@@H]1O[C@]2(F)COP(=O)(OC(C)C)O[C@H]2[C@@]1(C)F` (stereo partly drawn) [Compound 225], the inhibition [1] was ≥ 50%.

In the case of `CCOc1nc(N)nc2c1ncn2[C@@H]1O[C@](F)(COP(=O)(N[C@@H](C)C(=O)OCC(C)(C)C)Oc2cccc3ccccc23)[C@@H](O)[C@@]1(C)F` (stereo partly drawn) [Compound 234], the inhibition [1] was ≥ 50%.

`C[C@@]1(Cl)[C@H](O)[C@@H](COP(=O)(O)OP(=O)(O)OP(=O)(O)O)O[C@H]1n1cnc2c(=O)[nH]c(N)nc21` [Compound 246] was tested, and the pIC50 (SARS polymerase) was > 5.00.

With `CC(C)(C)C(=O)OCOP(=O)(OCOC(=O)C(C)(C)C)OC[C@H]1O[C@@H](n2ccc(=O)[nH]c2=O)[C@](C)(O)[C@@H]1O` [Compound 265] the EC90 (MERS) was 10 to 50 µM, the pEC50 [2] was > 5.00 and the pEC50 (Chikungunya virus) was > 5.00.

In the case of `C[C@H](NP(=O)(OC[C@H]1O[C@@H](n2cnc3c(=O)[nH]c(N)nc32)[C@](C)(Cl)[C@@H]1O)Oc1ccccc1)C(=O)OC1CCCCC1` (stereo partly drawn) [Compound 266], the EC90 (MERS) was < 10 µM.

`CCOc1nc(N)nc2c1ncn2[C@@H]1O[C@H](COP(=O)(N[C@@H](C)C(=O)OC2CCCCC2)Oc2ccccc2)[C@@H](O)[C@@]1(C)Cl` (stereo partly drawn) [Compound 267] was tested, and the EC90 (MERS) was 10 to 50 µM.
